Source: ChEMBL document CHEMBL1201862, “PubChem BioAssay data set” (2004)
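1) Cells in 96-well plates. 2) Compound, 48 h, 5 concentrations. 3) Linear interpolation between surrounding doses. 4) Unreached endpoint = highest concentration. Here, GI50 denotes the concentration required for 50% inhibition of growth.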 Active and inactive are the calls of the source. Rule as the data show it: active = GI50 up to about 1.1 µM and inactive = higher.

Assays:
Test in all cases: inhibition of tumour cell growth, NCI panel, 48 h
[1] = test system: SF-268
[2] = test system: CAKI-1
[3] = test system: ACHN
[4] = test system: A549
[5] = test system: BT-549
[6] = test system: HOP-62
[7] = test system: OVCAR-3
[8] = test system: CCRF-CEM
[9] = test system: NCI-H522
[10] = test system: EKVX
[11] = test system: M14
[12] = test system: SNB-75
[13] = test system: 786-0
[14] = test system: MDA-MB-231
[15] = test system: UO-31
[16] = test system: HCT-116
[17] = test system: IGROV-1
[18] = test system: SW-620
[19] = test system: NCI-H23
[20] = test system: HCT-15
[21] = test system: HOP-92
[22] = test system: OVCAR-5
[23] = test system: MOLT-4
[24] = test system: LOX IMVI
[25] = test system: MDA-MB-435
[26] = test system: K562
[27] = test system: T47D
[28] = test system: HL-60
[29] = test system: RPMI-8226
[30] = test system: DU-145
[31] = test system: NCI-H460
[32] = test system: SN12C
[33] = test system: NCI-H226
[34] = test system: KM12
[35] = test system: HCC 2998
[36] = test system: SF-539
[37] = test system: TK-10
[38] = test system: HT-29
[39] = test system: A498
[40] = test system: SK-MEL-28
[41] = test system: SR
[42] = test system: Hs-578T
[43] = test system: NCI/ADR-RES
[44] = test system: PC-3
[45] = test system: SNB-19
[46] = test system: U-251
[47] = test system: SK-MEL-5
[48] = test system: RXF 393
[49] = test system: Malme-3M
[50] = test system: MCF7
[51] = test system: UACC-257
[52] = test system: OVCAR-8
[53] = test system: SF-295
[54] = test system: OVCAR-4
[55] = test system: UACC-62
[56] = test system: MDA-N
[57] = test system: SK-MEL-2
[58] = test system: SK-OV-3
[59] = test system: COLO 205

SMILES: CS(=O)(=O)CCC1CCC(=O)O1 (stereo unspecified)
- GI50 [1]: 51.9 µM (inactive)
- GI50 [2]: > 100 µM (inactive)
- GI50 [3]: 31.5 µM (inactive)
- GI50 [4]: 43.6 µM (inactive)
- GI50 [5]: 53 µM (inactive)
- GI50 [6]: 40.5 µM (inactive)
- GI50 [7]: > 100 µM (inactive)
- GI50 [8]: > 10 µM (inactive)
- GI50 [9]: 31.2 µM (inactive)
- GI50 [10]: > 100 µM (inactive)
- GI50 [11]: > 100 µM (inactive)
- GI50 [12]: 97.9 µM (inactive)
- GI50 [13]: > 100 µM (inactive)
- GI50 [14]: > 100 µM (inactive)
- GI50 [15]: > 100 µM (inactive)
- GI50 [16]: 48.6 µM (inactive)
- GI50 [17]: > 100 µM (inactive)
- GI50 [18]: > 100 µM (inactive)
- GI50 [19]: 94.2 µM (inactive)
- GI50 [20]: > 100 µM
- GI50 [21]: > 100 µM (inactive)
- GI50 [22]: > 100 µM (inactive)
- GI50 [23]: 22 µM (inactive)
- GI50 [24]: 20.6 µM (inactive)
- GI50 [25]: > 100 µM (inactive)
- GI50 [26]: > 100 µM (inactive)
- GI50 [27]: > 100 µM (inactive)
- GI50 [28]: > 100 µM (inactive)
- GI50 [29]: > 100 µM (inactive)
- GI50 [30]: 96.8 µM (inactive)
- GI50 [31]: 69.5 µM (inactive)
- GI50 [32]: 68.1 µM (inactive)
- GI50 [33]: > 100 µM (inactive)
- GI50 [34]: > 100 µM (inactive)
- GI50 [35]: > 100 µM (inactive)
- GI50 [36]: > 100 µM (inactive)
- GI50 [37]: > 100 µM (inactive)
- GI50 [38]: > 100 µM (inactive)
- GI50 [39]: > 100 µM (inactive)
- GI50 [40]: > 100 µM (inactive)
- GI50 [41]: 85.1 µM (inactive)
- GI50 [42]: 49 µM (inactive)
- GI50 [43]: > 100 µM (inactive)
- GI50 [44]: > 100 µM (inactive)
- GI50 [45]: > 100 µM (inactive)
- GI50 [46]: > 100 µM (inactive)
- GI50 [47]: > 100 µM (inactive)
- GI50 [48]: 49.2 µM (inactive)
- GI50 [49]: > 100 µM (inactive)
- GI50 [50]: 58.9 µM (inactive)
- GI50 [51]: > 100 µM (inactive)
- GI50 [52]: > 100 µM (inactive)
- GI50 [53]: 92.9 µM (inactive)

SMILES: COc1nc(O)nc2c1C(c1ccc([N+](=O)[O-])cc1)c1c(OC)nc(O)nc1O2
- GI50 [1]: > 100 µM (inactive)
- GI50 [2]: > 100 µM (inactive)
- GI50 [3]: > 100 µM (inactive)
- GI50 [4]: > 100 µM (inactive)
- GI50 [5]: > 100 µM (inactive)
- GI50 [6]: > 100 µM (inactive)
- GI50 [7]: > 100 µM (inactive)
- GI50 [8]: > 100 µM (inactive)
- GI50 [9]: > 100 µM (inactive)
- GI50 [54]: > 100 µM (inactive)
- GI50 [10]: > 100 µM (inactive)
- GI50 [11]: > 100 µM (inactive)
- GI50 [13]: > 100 µM (inactive)
- GI50 [55]: > 100 µM (inactive)
- GI50 [14]: > 100 µM (inactive)
- GI50 [15]: > 100 µM (inactive)
- GI50 [16]: > 100 µM (inactive)
- GI50 [17]: > 100 µM (inactive)
- GI50 [18]: > 100 µM (inactive)
- GI50 [19]: > 100 µM (inactive)
- GI50 [20]: > 100 µM
- GI50 [22]: > 100 µM (inactive)
- GI50 [23]: > 100 µM (inactive)
- GI50 [25]: > 100 µM (inactive)
- GI50 [28]: > 100 µM (inactive)
- GI50 [29]: > 100 µM (inactive)
- GI50 [56]: > 100 µM (inactive)
- GI50 [30]: > 100 µM (inactive)
- GI50 [31]: > 100 µM (inactive)
- GI50 [32]: > 100 µM (inactive)
- GI50 [57]: > 100 µM (inactive)
- GI50 [33]: > 100 µM (inactive)
- GI50 [34]: > 100 µM (inactive)
- GI50 [58]: > 100 µM (inactive)
- GI50 [59]: > 100 µM (inactive)
- GI50 [37]: > 100 µM (inactive)
- GI50 [38]: > 100 µM (inactive)
- GI50 [39]: > 100 µM (inactive)
- GI50 [40]: > 100 µM (inactive)
- GI50 [42]: > 100 µM (inactive)
- GI50 [43]: > 100 µM (inactive)
- GI50 [44]: > 100 µM (inactive)
- GI50 [45]: > 100 µM (inactive)
- GI50 [46]: > 100 µM (inactive)
- GI50 [47]: > 100 µM (inactive)
- GI50 [48]: > 100 µM (inactive)
- GI50 [51]: > 100 µM (inactive)
- GI50 [52]: > 100 µM (inactive)
- GI50 [53]: > 100 µM (inactive)

SMILES: COc1ccc(C2CC(c3cc4c(C)c(C(=O)c5ccccc5)oc4cc3O)=Nc3ccccc3S2)cc1OC (stereo unspecified)
- GI50 [1]: > 42.7 µM (inactive)
- GI50 [3]: > 65.8 µM (inactive)
- GI50 [4]: 96.8 µM (inactive)
- GI50 [5]: > 56.5 µM (inactive)
- GI50 [8]: 70.8 µM (inactive)
- GI50 [9]: 19.1 µM (inactive)
- GI50 [10]: 28.2 µM (inactive)
- GI50 [11]: > 57.1 µM (inactive)
- GI50 [12]: 73.6 µM (inactive)
- GI50 [13]: 47.6 µM (inactive)
- GI50 [55]: > 51.4 µM (inactive)
- GI50 [14]: > 87.3 µM (inactive)
- GI50 [15]: > 100 µM (inactive)
- GI50 [16]: > 90.4 µM (inactive)
- GI50 [17]: 55.8 µM (inactive)
- GI50 [18]: > 84.7 µM (inactive)
- GI50 [19]: 52.7 µM (inactive)
- GI50 [20]: > 73.1 µM
- GI50 [21]: 20.3 µM (inactive)
- GI50 [22]: > 100 µM (inactive)
- GI50 [23]: > 100 µM (inactive)
- GI50 [24]: > 100 µM (inactive)
- GI50 [25]: 0.733 µM (active)
- GI50 [26]: > 72.9 µM (inactive)
- GI50 [28]: 9.82 µM (inactive)
- GI50 [29]: > 91.6 µM (inactive)
- GI50 [56]: > 40.2 µM (inactive)
- GI50 [31]: > 100 µM (inactive)
- GI50 [32]: > 100 µM (inactive)
- GI50 [57]: > 59.2 µM (inactive)
- GI50 [33]: > 100 µM (inactive)
- GI50 [35]: > 100 µM (inactive)
- GI50 [59]: > 100 µM (inactive)
- GI50 [36]: > 50 µM (inactive)
- GI50 [37]: > 77.1 µM (inactive)
- GI50 [38]: > 100 µM (inactive)
- GI50 [39]: > 57.5 µM (inactive)
- GI50 [40]: > 100 µM (inactive)
- GI50 [41]: 52.5 µM (inactive)
- GI50 [42]: 25.8 µM (inactive)
- GI50 [43]: > 58.1 µM (inactive)
- GI50 [44]: > 100 µM (inactive)
- GI50 [45]: 48.8 µM (inactive)
- GI50 [46]: > 65 µM (inactive)
- GI50 [47]: > 56.5 µM (inactive)
- GI50 [49]: 25.8 µM (inactive)
- GI50 [50]: > 64 µM (inactive)
- GI50 [51]: > 100 µM (inactive)
- GI50 [52]: > 100 µM (inactive)
